Experimental data taken from patent US8067598B2, “Heterofused piperidines as orexin antagonists” (Hoffman-La Roche Inc., priority 2007, dated 2011).
No end group written: not given here.

Experiments:
[1] = target: T1, human orexin-1 (hOX1) receptors (Homo sapiens, UniProt O43613); assay: Intracellular Ca2+ mobilization assay (FLIPR), CHO(dHFr-) cells expressing hOX1; format: cell-based; conditions: antagonism of orexin-A at EC80; Kb=IC50/(1+[A]/EC50); CHO(dHFr-)-OX1R cells
T1 construct: expressed in transfected cells
T1 sequence (O43613 1-425): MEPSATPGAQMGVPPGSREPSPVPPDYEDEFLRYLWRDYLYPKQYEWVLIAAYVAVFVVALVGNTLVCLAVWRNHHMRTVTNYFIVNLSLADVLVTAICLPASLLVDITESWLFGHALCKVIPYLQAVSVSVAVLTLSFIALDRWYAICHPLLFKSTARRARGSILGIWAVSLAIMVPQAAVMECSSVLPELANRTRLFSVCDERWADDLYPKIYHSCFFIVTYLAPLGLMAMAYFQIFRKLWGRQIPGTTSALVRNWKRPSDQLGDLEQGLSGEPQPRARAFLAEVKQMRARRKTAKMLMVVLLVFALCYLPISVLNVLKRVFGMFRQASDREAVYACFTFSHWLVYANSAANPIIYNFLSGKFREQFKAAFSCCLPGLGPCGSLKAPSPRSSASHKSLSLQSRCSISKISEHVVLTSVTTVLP
Experimental: (§1) Intracellular Ca^2+ Mobilization Assay
(§2) The Chinese Hamster Ovary (dHFr-) mutant cell line stably expressing human orexin-1 (hOX1) or human orexin-2 (hOX2) receptors were maintained in Dulbecco's Modified Eagle Medium (1X) with GlutaMax™ 1, 4500 mg/L D-Glucose and Sodium Pyruvate (Catalog No. 31966-021, Invitrogen, Carlsbad, Calif.), 5% dialyzed fetal calf serum (Catalog No. 26400-044), 100 μg/ml penicillin and 100 μg/ml streptomycin. The cells were seeded at 5×10^4 cells/well in the poly-D-lysine treated, 96-well, black/clear-bottomed plates (Catalog No. BD356640, BD Biosciences, Palo Alto, Calif.). 24 h later, the cells were loaded for 1 h at 37° C. with 4 μM Flou-4 acetoxymethyl ester (Catalog No. F-14202, Molecular Probes, Eugene, Oreg.) in FLIPR buffer (1×HBSS, 20 mM HEPES, 2.5 mM Probenecid). Hanks' Balanced Salt Solution (HBSS) (10X) (catalog No. 14065-049) and HEPES (1M) (catalog No. 15630-056) were purchased from Invitrogen, Carlsbad, Calif. Probenecid (250 mM) (catalog No. P8761) was from Sigma, Buchs, Switzerland. The cells were washed five times with FLIPR buffer to remove excess dye and intracellular calcium mobilization, [Ca^2+]i were measured using a Fluorometric Imaging Plate Reader (FLIPR-96, Molecular Devices, Menlo Park, Calif.) as described previously (Malherbe et al., Mol. Pharmacol., 64, 823-832, 2003). Orexin A (catalog No. 1455, Toris Cookson Ltd, Bristol, UK) was used as agonist. Orexin A ([…] stock solution in DMSO) was diluted in FLIPR buffer+0.1% BSA. The EC50 and EC80 values of orexin-A were measured daily from standard agonist concentration-response curves in CHO(dHFr-)-OX1R and -OX2R cell lines. All compounds were dissolved in 100% DMSO. Inhibition curves were determined by addition of 11 concentrations (0.0001-10 μM) of inhibitory compounds and using EC80 value of orexin-A as agonist (a concentration which gave 80% of max agonist response, determined daily). The antagonists were applied 25 min (incubation at 37° C.) before the application of the agonist. Responses were measured as peak increase in fluorescence minus basal, normalized to the maximal stimulatory effect induced by EC80 value of orexin-A or orexin-B. Inhibition curves were fitted according to the Hill equation: y=100/(1+(x/IC50)^nH), where nH=slope factor using Excel-fit 4 software (Microsoft).
(§3) Kb values were calculated according to the following equation Kb=IC50/(1+[A]/EC50) where A is the concentration of agonist added which is very close to agonist EC80 value, and IC50 and EC50 values were derived from the antagonist inhibition and orexin-A or B agonist curves, respectively.

[2] = target: T2, human orexin-2 (hOX2) receptors (Homo sapiens, UniProt O43614); assay: Intracellular Ca2+ mobilization assay (FLIPR), CHO(dHFr-) cells expressing hOX2; format: cell-based; conditions: antagonism of orexin-A at EC80; Kb=IC50/(1+[A]/EC50); CHO(dHFr-)-OX2R cells
T2 construct: expressed in transfected cells
T2 sequence (O43614 1-444): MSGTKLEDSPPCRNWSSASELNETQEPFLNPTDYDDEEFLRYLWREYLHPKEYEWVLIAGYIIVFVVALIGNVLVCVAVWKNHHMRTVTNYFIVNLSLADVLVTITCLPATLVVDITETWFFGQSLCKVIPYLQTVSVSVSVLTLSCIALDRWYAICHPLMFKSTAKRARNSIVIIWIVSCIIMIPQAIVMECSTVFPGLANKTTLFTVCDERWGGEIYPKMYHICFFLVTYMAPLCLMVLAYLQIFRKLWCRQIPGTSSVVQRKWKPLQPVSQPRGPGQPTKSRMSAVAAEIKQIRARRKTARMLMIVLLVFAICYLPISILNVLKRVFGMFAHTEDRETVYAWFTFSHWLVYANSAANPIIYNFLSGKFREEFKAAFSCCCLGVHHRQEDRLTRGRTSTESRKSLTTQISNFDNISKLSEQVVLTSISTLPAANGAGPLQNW
Experimental: as §1, §2, §3

rat = conditions: icv administration (Piper et al., 2000); cited from earlier work

| Molecule | Kb [1] | Kb [2] | reduction of total REM sleep (rat) |
| --- | --- | --- | --- |
| CNC(=O)C(c1ccccc1)N1CCc2sc(C)cc2C1CCc1ccc(C(F)(F)F)cc1 (single isomer, unassigned) [Example 4, N-Methyl-2-{2-methyl-4-[2-(4-trifluoromethyl-phenyl)-ethyl]-6,7-dihydro-4H-thieno[3,2-c]pyridin-5-yl}-2-phenyl-acetamide] | 0.047 µM | 0.0204 µM |  |
| CNC(=O)C(c1ccccc1)N1CCc2sc(C)cc2C1CCc1ccc(C(F)(F)F)cc1 (single isomer, unassigned) [Example 6, N-Methyl-2-{2-methyl-4-[2-(4-trifluoromethyl-phenyl)-ethyl]-6,7-dihydro-4H-thieno[3,2-c]pyridin-5-yl}-2-phenyl-acetamide] | 0.0401 µM | 0.0091 µM |  |
| CNC(=O)C(c1ccccc1)N1CCc2sc(C)cc2C1CCc1ccc(OC)cc1 (single isomer, unassigned) [Example 7, 2-{4-[2-(4-Methoxy-phenyl)-ethyl]-2-methyl-6,7-dihydro-4H-thieno[3,2-c]pyridin-5-yl}-N-methyl-2-phenyl-acetamide] | 0.0311 µM | 0.0266 µM |  |
| CNC(=O)C(c1ccccc1)N1CCc2sc(C)cc2C1CCc1ccc(OC)cc1 (single isomer, unassigned) [Example 8, 2-{4-[2-(4-Methoxy-phenyl)-ethyl]-2-methyl-6,7-dihydro-4H-thieno[3,2-c]pyridin-5-yl}-N-methyl-2-phenyl-acetamide] | 0.0135 µM | 0.0075 µM |  |
| CNC(=O)C(c1ccccc1)N1CCc2sc(C)cc2C1CCc1ccc(OC)cc1 (single isomer, unassigned) [Example 9, 2-{4-[2-(4-Methoxy-phenyl)-ethyl]-2-methyl-6,7-dihydro-4H-thieno[3,2-c]pyridin-5-yl}-N-methyl-2-phenyl-acetamide] | 0.408 µM | 0.0566 µM |  |
| CNC(=O)C(c1ccccc1)N1CCc2ncccc2C1CCc1ccc(OC)cc1 (single isomer, unassigned) [Example 11, 2-{5-[2-(4-Methoxy-phenyl)-ethyl]-7,8-dihydro-5H-[1,6]naphthyridin-6-yl}-N-methyl-2-phenyl-acetamide] | 0.164 µM | 0.0215 µM |  |
| CNC(=O)C(c1ccccc1)N1CCc2sc(C)c(C)c2C1CCc1ccc(OC)cc1 (single isomer, unassigned) [Example 13, 2-{4-[2-(4-Methoxy-phenyl)-ethyl]-2,3-dimethyl-6,7-dihydro-4H-thieno[3,2-c]pyridin-5-yl}-N-methyl-2-phenyl-acetamide] | 0.0402 µM | 0.005 µM |  |
| CNC(=O)C(c1ccccc1)N1CCc2sc(C)c(C)c2C1CCc1ccc(OC)cc1 (single isomer, unassigned) [Example 14, 2-{4-[2-(4-Methoxy-phenyl)-ethyl]-2,3-dimethyl-6,7-dihydro-4H-thieno[3,2-c]pyridin-5-yl}-N-methyl-2-phenyl-acetamide] | 0.0221 µM | 0.0036 µM |  |
| CNC(=O)C(c1ccccc1)N1CCc2sc(C)c(C)c2C1CCc1ccc(OC)cc1 (single isomer, unassigned) [Example 15, 2-{4-[2-(4-Methoxy-phenyl)-ethyl]-2,3-dimethyl-6,7-dihydro-4H-thieno[3,2-c]pyridin-5-yl}-N-methyl-2-phenyl-acetamide] | 0.408 µM | 0.0169 µM |  |
| CNC(=O)C(c1ccccc1)N1CCc2ccsc2C1CCc1ccc(C(F)(F)F)cc1 (single isomer, unassigned) [Example 16, N-Methyl-2-phenyl-2-{7-[2-(4-trifluoromethyl-phenyl)-ethyl]-4,7-dihydro-5H-thieno[2,3-c]pyridin-6-yl}-acetamide] | 0.0524 µM | 0.0148 µM |  |
| CNC(=O)C(c1ccccc1)N1CCc2sc(Cl)cc2C1CCc1ccc(OC)cc1 (single isomer, unassigned) [Example 17, 2-{2-Chloro-4-[2-(4-methoxy-phenyl)-ethyl]-6,7-dihydro-4H-thieno[3,2-c]pyridin-5-yl}-N-methyl-2-phenyl-acetamide] | 0.0162 µM | 0.0462 µM |  |
| CNC(=O)C(c1ccccc1)N1CCc2sc(Cl)cc2C1CCc1ccc(OC)cc1 (single isomer, unassigned) [Example 18, 2-{2-Chloro-4-[2-(4-methoxy-phenyl)-ethyl]-6,7-dihydro-4H-thieno[3,2-c]pyridin-5-yl}-N-methyl-2-phenyl-acetamide] | 0.0095 µM | 0.032 µM |  |
| CNC(=O)C(c1ccccc1)N1CCc2ncccc2C1CCc1ccc(OC)cc1 (single isomer, unassigned) [Example 22, 2-{5-[2-(4-Methoxy-phenyl)-ethyl]-7,8-dihydro-5H-[1,6]naphthyridin-6-yl}-N-methyl-2-phenyl-acetamide] | 0.105 µM | 0.038 µM |  |
| CNC(=O)C(c1ccccc1)N1CCc2ncccc2C1CCc1cccc(OC)c1 (single isomer, unassigned) [Example 23, 2-{5-[2-(3-Methoxy-phenyl)-ethyl]-7,8-dihydro-5H-[1,6]naphthyridin-6-yl}-N-methyl-2-phenyl-acetamide] | 0.223 µM | 0.0852 µM |  |
| CNC(=O)C(c1ccccc1)N1CCc2ncccc2C1CCc1cccc(OC)c1 (single isomer, unassigned) [Example 25, 2-{5-[2-(3-Methoxy-phenyl)-ethyl]-7,8-dihydro-5H-[1,6]naphthyridin-6-yl}-N-methyl-2-phenyl-acetamide] | 0.108 µM | 0.0296 µM |  |
| CNC(=O)C(c1ccccc1)N1CCc2ncccc2C1CCc1ccc(C(F)(F)F)cc1 (single isomer, unassigned) [Example 26, N-Methyl-2-phenyl-2-{5-[2-(4-trifluoromethyl-phenyl)-ethyl]-7,8-dihydro-5H -[1,6]naphthyridin-6-yl}-acetamide] | 0.348 µM | 0.0356 µM |  |
| CNC(=O)C(c1ccccc1)N1CCc2ncccc2C1CCc1ccc(F)cc1 (single isomer, unassigned) [Example 28, 2-{5-[2-(4-Fluoro-phenyl)-ethyl]-7,8-dihydro-5H-[1,6]naphthyridin-6-yl}-N-methyl-2-phenyl-acetamide] | 0.301 µM | 0.0601 µM |  |
| OX-A: orexin-A/hypocretin1 hypothalamic neuropeptide, 33 amino acids; agonist of OX1R and OX2R (QPLPDCCRQKTCSCRLYELLHGAGNHAAGILTL; ends and bridges not checked; cysteine pairing not given here; UniProt O43612 34-66, looked up) |  |  | 84% |
